Measurements reported in patent publication US20140213502A1, “CHEMICAL MODIFICATION OF APOLIPOPROTEIN MIMETIC PEPTIDES FOR THE PRODUCTION OF THERAPEUTIC AGENTS” (United States Department of Health and Human Services, priority 2011, published 2014).
Read-outs that look alike come from different tables or passages of the source. Bridge positions count the residues as written; N and C are the ends. Square brackets hold non-standard residues; d marks the D form. Ends that are not written are not given here. Peptide text beside a SMILES is read from it. * marks the point of attachment. Myristoyl = CCCCCCCCCCCCCC(=O)*; R8 = C=CCCCCCC[C@@](C)(N)C(=O)O; S5 = C=CCCC[C@](C)(N)C(=O)O

Tests used:
[1] = Helicity by circular dichroism (CD) spectroscopy; format: physicochemical; settings: for helical (helicity by CD spectroscopy): 24° C., aqueous buffer (sodium phosphate pH 7.4), peptide 0.1 mg/mL; for Helicity at 90° C.: heat denaturation, CD spectroscopy
Procedure: FIG. 1 depicts the primary sequence and information regarding the biophysical characterization of illustrative peptides discussed herein. […] X1=(R)-a-(7′-octanyl)Ala; X2=(S)-a-(4′ pentenyl)Ala. […] (dotted line) A10, (solid line) S1A10, (dashed line) S2A10.
FIG. 5 depicts helicity of peptides as measured by CD-spectroscopy at 24° C.: (dotted line) 5A, (dashed line) acyl-5A.
The helical nature of the peptides was determined by circular dichroism spectroscopy. Peptides (0.1 mg/mL) in sodium phosphate buffer (pH 7.4) were loaded into a quartz cuvette (d=0.2 cm path length) and CD spectra from 185 to 240 nm were recorded on a Jasco J715 spectropolarimeter at 24° C. Data were normalized by calculating the mean residue ellipticity (θ). Peptide thermostability was monitored at 220 nm by increasing temperature from 10° to 90° C.

chymotrypsin = experiment: Susceptibility to proteolysis by chymotrypsin, loss of intact peptide by MALDI-TOF MS; format: in vitro ADME; settings: for remaining at 24 h, 500 μg/ml: chymotrypsin (isolated protease), read-out: peptide remaining after digestion
Procedure: (§1) FIG. 2 depicts information relating to peptide susceptibility to proteolysis. Peptides […] and […] at a final concentration of 500 μg/ml were incubated for the indicated times with either pepsin (0.5 μg/ml) in 10% acetic acid (pH 2.0) buffer (Panel A) or with chymotrypsin (0.5 μg/ml) in 10 mM NH4HCO3 (pH 7.4) buffer (Panel B), and loss of intact peptide was monitored by MALDI-TOF MS. Results are expressed as normalized area under the curve measurements relative to three internal standards. […] Several potential pepsin and/or chymotrypsin cleavage sites are found within and outside the linker region of the peptides […] and […]. […] and […] (5 mg/ml) were diluted 10× with either 10% acetic acid (pH 2), containing pepsin (0.5 μg/ml final) or in 10 mM NH4HCO3 (pH 7), containing chymotrypsin (0.5 μg/ml final). After incubation at 37° C., aliquots at various time points were removed and dried on a MALDI Anchor Chip target at 45° C. MALDI standards (Bombesin, ACTH 1-17, ACTH 18-39, Somastatin 28, CHCA in 50% ACN, 0.1% TFA) and matrix were added sequentially and allowed to dry between additions. Samples were analyzed on a Bruker AutoFlex III (Bruker Daltonics) in positive ion reflectron mode. Relative protein concentrations were determined from areas under the curve, using the MALDI standards as calibrators.

aortic atherosclerosis = experiment: Atherosclerosis progression in a mouse model, en face analysis of aorta; format: in vivo; settings: apoE^hypx SR-BI Ko mice, 200 ug/mL in drinking water, high fat (21%) diet 2 weeks
Procedure: FIG. 8 depicts the results of testing the peptide […] on atherosclerosis progression in a mouse model of atherosclerosis. To test the ability of the stapled peptide variant of the last helix of apoA-T containing the long linker, […], it was added to the drinking water (200 ug/mL) of apoE^hypx SR-BI Ko mice. The mice were fed a high fat (21%) diet for 2-weeks and examined for aortic atherosclerosis by en face analysis.

pepsin = experiment: Susceptibility to proteolysis by pepsin, loss of intact peptide by MALDI-TOF MS; format: in vitro ADME; settings: for remaining at 24 h, 500 μg/ml: pepsin (isolated protease), pepsin 0.5 μg/ml, pH 2, 37° C., read-out: peptide remaining after digestion
Procedure: as §1

[2] = cited from earlier work
[3] = Effect of acyl-5A on serum lipid profile of mice; format: in vivo; settings: CS7BL/6 mice, 30 mg/kg intravenously in saline, relative to baseline
Procedure: FIG. 7 depicts the results of testing acyl-5A on scrum lipid values in mice. Acyl-5A was injected intravenously in CS7BL/6 mice (n=4) at a dose of 30 mg/kg in saline, and serum was measured for total cholesterol (Panel A), cholesteryl esters (Panel B), and free cholesterol (Panel C) at the indicated, time points. Mean of results are expressed as % of baseline.
In FIG. 7, the results of testing the effect of acyl-5A on the serum lipid profile of mice are shown.

[4] = Oligomer formation in aqueous solution; format: physicochemical
ABCG1 transporter = molecular target: T1, ABCG1 transporter (Homo sapiens, UniProt P45844); experiment: Cholesterol efflux, ABCG1 transfected BHK cells; format: cell-based; settings: 18 h, no phospholipid reconstitution
T1 construct: expressed in transfected cells; host or cells: BHK cells
Procedure: (§2) FIG. 4 depicts the results of testing the effect of the peptides on cholesterol efflux. Peptides A10, S1A10, S2A10, 5A at the indicated concentration were incubated with (Panel A) BHK control cells, (Panel B) ABC-A1 transfected BHK cells, (Panel C) ABC-G1 transfected BHK cells, and (Panel D) SR-B1 transfected BHK cells and monitored for cholesterol efflux. Percent of cholesterol efflux over 18 h is expressed as mean±SD of triplicate determinations.
(§3) The ability of the three peptides and the bi-helical 5A peptide to promote cholesterol efflux was tested on BHK cells stably transfected with human ABCA1, ABCG1 or the human SRBI receptor (FIGS. 5 and 6). Cholesterol efflux studies were performed, as described previously. Control BHK cells and BHK cells stably transfected with either human ABCA1, ABCG1 or SR-BI were radiolabeled with [^3H] cholesterol for 24 h, washed and then treated with the indicated concentration of peptides for 18 h. Percent efflux was calculated by subtracting the radioactive counts in blank medium (alpha-minimal essential media plus 10 μg/ml bovine serum albumin) from the radioactive counts in the presence of a peptide and then dividing the result by the sum of the radioactive counts in the medium plus the cell fraction.

[5] = format: physicochemical
Procedure: FIG. 3 depicts Dimyristoyl phosphatidyl choline (DMPC) vesicle solubilization by the indicated peptides. Peptides A10, S1A10 and S2A10 at a final concentration of 33 μg/mL or phosphate buffer saline (PBS) was incubated with DMPC vehicles (200 μg/mL) and monitored for turbidity at 1 min. intervals.
A phospholipid vesicle solubilization assay was undertaken to assess the ability of the peptides to act like detergents. Dimyristoyl phosphatidyl choline (DMPC) vesicles were prepared by resuspension of dried DMPC with PBS and vortexing for 5 min. Changes in light scattering upon peptide addition were monitored at 24° C. every minute for 1 h at 660 nm, with shaking in a Perkin Elmer plate reader.

SR-BI receptor = molecular target: T2, SR-BI receptor (Homo sapiens, UniProt Q8WTV0); experiment: Cholesterol efflux, SR-BI transfected BHK cells; format: cell-based; settings: 18 h, no phospholipid reconstitution
T2 construct: expressed in transfected cells; host or cells: BHK cells
T2 sequence (Q8WTV0 1-552): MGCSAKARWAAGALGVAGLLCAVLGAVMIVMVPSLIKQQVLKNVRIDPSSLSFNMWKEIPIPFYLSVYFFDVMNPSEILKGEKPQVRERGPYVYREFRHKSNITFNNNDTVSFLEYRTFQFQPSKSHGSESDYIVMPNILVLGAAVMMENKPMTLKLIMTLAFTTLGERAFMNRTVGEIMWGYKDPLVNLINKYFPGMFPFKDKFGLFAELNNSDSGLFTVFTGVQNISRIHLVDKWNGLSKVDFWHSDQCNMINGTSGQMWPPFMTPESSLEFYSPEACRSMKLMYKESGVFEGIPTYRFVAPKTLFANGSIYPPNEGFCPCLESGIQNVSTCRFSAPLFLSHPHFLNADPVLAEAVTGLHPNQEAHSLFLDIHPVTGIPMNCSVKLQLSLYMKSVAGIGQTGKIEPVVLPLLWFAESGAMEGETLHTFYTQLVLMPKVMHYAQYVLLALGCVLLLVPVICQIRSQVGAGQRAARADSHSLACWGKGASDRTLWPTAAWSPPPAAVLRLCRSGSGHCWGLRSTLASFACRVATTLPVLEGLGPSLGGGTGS
Procedure: as §2, §3

ABCA1 transporter = molecular target: T3, ABCA1 transporter (Homo sapiens, UniProt O95477); experiment: Cholesterol efflux, BHK cells stably transfected with human ABCA1; format: cell-based; settings: 18 h
T3 construct: expressed in transfected cells; host or cells: BHK cells
T3 sequence (O95477 whole entry): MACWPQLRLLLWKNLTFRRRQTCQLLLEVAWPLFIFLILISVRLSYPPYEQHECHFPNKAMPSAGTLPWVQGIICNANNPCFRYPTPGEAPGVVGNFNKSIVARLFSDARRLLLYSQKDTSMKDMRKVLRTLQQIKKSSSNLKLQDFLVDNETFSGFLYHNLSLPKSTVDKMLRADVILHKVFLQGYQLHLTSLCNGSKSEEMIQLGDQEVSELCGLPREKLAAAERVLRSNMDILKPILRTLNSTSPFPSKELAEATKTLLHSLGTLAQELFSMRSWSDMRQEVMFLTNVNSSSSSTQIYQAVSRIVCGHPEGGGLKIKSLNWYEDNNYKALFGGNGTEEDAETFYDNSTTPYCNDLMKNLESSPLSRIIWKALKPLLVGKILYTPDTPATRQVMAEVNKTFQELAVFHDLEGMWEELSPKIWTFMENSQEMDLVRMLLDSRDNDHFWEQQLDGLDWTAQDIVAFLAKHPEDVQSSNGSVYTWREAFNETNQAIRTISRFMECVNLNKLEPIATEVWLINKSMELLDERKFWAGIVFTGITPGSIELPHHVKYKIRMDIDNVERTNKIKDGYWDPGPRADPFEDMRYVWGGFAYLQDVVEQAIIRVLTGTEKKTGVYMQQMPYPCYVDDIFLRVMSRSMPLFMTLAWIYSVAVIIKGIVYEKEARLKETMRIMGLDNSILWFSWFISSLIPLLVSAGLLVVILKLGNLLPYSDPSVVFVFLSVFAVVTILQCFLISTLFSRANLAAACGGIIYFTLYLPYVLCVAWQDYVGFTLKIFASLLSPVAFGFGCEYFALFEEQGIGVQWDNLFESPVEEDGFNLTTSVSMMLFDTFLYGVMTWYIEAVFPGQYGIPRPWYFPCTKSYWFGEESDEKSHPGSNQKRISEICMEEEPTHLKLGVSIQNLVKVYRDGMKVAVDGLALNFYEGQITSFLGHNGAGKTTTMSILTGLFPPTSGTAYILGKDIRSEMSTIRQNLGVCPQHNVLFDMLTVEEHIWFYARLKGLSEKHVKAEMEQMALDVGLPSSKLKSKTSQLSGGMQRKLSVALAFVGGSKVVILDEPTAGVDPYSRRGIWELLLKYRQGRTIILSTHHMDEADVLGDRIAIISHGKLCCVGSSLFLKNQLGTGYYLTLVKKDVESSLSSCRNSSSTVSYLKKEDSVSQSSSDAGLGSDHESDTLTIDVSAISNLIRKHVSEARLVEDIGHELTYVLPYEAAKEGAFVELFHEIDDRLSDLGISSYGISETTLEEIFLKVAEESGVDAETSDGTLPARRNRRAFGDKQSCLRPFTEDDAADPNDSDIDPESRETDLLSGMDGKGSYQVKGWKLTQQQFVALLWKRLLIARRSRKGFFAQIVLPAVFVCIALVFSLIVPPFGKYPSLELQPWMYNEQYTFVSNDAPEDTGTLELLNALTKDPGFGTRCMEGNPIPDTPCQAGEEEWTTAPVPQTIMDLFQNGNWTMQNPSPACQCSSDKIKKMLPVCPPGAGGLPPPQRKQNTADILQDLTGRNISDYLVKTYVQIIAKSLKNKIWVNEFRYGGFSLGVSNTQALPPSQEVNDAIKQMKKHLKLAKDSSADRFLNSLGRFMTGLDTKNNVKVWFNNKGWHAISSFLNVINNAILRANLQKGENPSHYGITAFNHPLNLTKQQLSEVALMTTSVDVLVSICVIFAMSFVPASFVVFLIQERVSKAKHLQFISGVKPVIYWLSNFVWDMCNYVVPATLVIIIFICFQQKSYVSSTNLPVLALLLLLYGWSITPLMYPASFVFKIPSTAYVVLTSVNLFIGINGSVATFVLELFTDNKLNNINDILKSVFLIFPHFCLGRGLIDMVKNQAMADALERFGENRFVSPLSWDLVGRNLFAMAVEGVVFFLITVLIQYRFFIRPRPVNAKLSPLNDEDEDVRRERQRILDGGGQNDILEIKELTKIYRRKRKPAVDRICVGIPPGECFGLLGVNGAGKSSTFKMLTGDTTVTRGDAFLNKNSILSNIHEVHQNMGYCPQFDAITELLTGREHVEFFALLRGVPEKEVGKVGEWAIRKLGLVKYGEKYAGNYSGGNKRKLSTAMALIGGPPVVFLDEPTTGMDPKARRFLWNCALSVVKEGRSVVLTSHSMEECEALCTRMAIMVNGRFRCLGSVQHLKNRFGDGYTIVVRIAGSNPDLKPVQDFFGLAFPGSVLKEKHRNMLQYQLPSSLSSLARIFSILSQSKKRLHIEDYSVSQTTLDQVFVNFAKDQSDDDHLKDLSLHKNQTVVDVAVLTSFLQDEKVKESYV
Procedure: as §2, §3

[6] = chymotrypsin 0.5 μg/ml, 10 mM NH4HCO3 (pH 7), 37° C.

For `CC(=O)N[C@H](C(=O)N[C@@H](CC(C)C)C(=O)N[C@@H](CCC(=O)O)C(=O)N[C@@H](CO)C(=O)N[C@@H](Cc1ccccc1)C(=O)N[C@@H](CCCCN)C(=O)N[C@H](C(=O)N[C@@H](CO)C(=O)N[C@@]1(C)CCCC=CCCCCCC[C@](C)(C(=O)N[C@H](C(=O)N[C@@H](CCCCN)C(=O)N[C@@H](CCCCN)C(=O)N[C@@H](CC(C)C)C(=O)N[C@@H](CC(N)=O)C(=O)N[C@H](C(=O)N[C@@H](CCC(N)=O)C(N)=O)[C@@H](C)O)[C@@H](C)O)NC(=O)[C@H](CCC(=O)O)NC(=O)[C@H](CCC(=O)O)NC(=O)[C@H](CC(C)C)NC(=O)[C@H](C)NC(=O)[C@H](CO)NC(=O)[C@H](CC(C)C)NC1=O)C(C)C)C(C)C` [S2A10] (Ac-VLESFKVS[S5]LSALEE[R8]TKKLNTQ-NH2; staple 9-16; N-terminus and C-terminus assumed), the “helical (helicity by CD spectroscopy)” value [1] was 97%, the “Helicity at 90° C.” value [1] was 48% and the “resistance to proteolysis by chymotrypsin (in words)” value (chymotrypsin; [6]) was “less sensitive to chymotrypsin than S1A10”. For the same compound, the remaining at 24 h, 500 μg/ml (chymotrypsin; [6]) was 3.8%, the “decrease in % area coverage by atherosclerotic plaques” value (aortic atherosclerosis) was > 2 fold and the remaining at 24 h, 500 μg/ml (pepsin) was 12.2%.

For `CC(=O)N[C@H](C(=O)N[C@@H](CC(C)C)C(=O)N[C@@H](CCC(=O)O)C(=O)N[C@@H](CO)C(=O)N[C@@H](Cc1ccccc1)C(=O)N[C@@H](CCCCN)C(=O)N[C@H](C(=O)N[C@@H](CO)C(=O)N[C@]1(C)CCCCCCC=CCCCCCC[C@](C)(C(=O)N[C@@H](CCC(=O)O)C(=O)N[C@@H](CCC(=O)O)C(=O)N[C@@H](Cc2ccc(O)cc2)C(=O)N[C@H](C(=O)N[C@@H](CCCCN)C(=O)N[C@@H](CCCCN)C(=O)N[C@@H](CC(C)C)C(=O)N[C@@H](CC(N)=O)C(=O)N[C@H](C(=O)N[C@@H](CCC(N)=O)C(N)=O)[C@@H](C)O)[C@@H](C)O)NC(=O)[C@H](C)NC(=O)[C@H](CO)NC(=O)[C@H](CC(C)C)NC1=O)C(C)C)C(C)C` [S1A10] (Ac-VLESFKVS[R8]LSA[R8]EEYTKKLNTQ-NH2; staple 9-13; N-terminus and C-terminus assumed), the “helical (helicity by CD spectroscopy)” value [1] was 62%, the “Helicity at 90° C.” value [1] was 25% and the remaining at 24 h, 500 μg/ml (chymotrypsin; [6]) was 0.6%. For the same compound, the remaining at 24 h, 500 μg/ml (pepsin) was 0.4%.

For “apoA-I: the main protein in High Density Lipoprotein (HDL)”, the helical ([2]; associated with lipids) is listed as “over 80%” and the helical ([2]; lipid-free state) is listed as “about 20%”.

With “myrstic acid GGGDWLKAFYDKVAEKLKEAFPDWAKAAYDKAAEKAKEAA (Myristoyl-GGGDWLKAFYDKVAEKLKEAFPDWAKAAYDKAAEKAKEAA) [acyl-5A]” the “increase in serum total cholesterol” value [3] was “approximately 20%”, the “increase in serum free cholesterol” value ([3]; found primarily on HDL) was > 2 fold and the “helical (helicity by CD spectroscopy)” value [1] was 36.7%. For the same compound, the “peptides per complex (oligomer)” value [4] was “approximately 10 peptides per complex”.

With “Ac-VLESFKVSFLSALEEYTKKLNTQ-NH2 [A10, reference compound]” the “helical (helicity by CD spectroscopy)” value [1] was 17%, the “Helicity at 90° C.” value [1] was 11% and the “cholesterol efflux (in words)” value (ABCG1 transporter) was “ineffective”. For the same compound, the “DMPC vesicle solubilization (turbidity, in words)” value [5] was “some initial solubilization of the DMPC vesicles, but at later time points, the turbidity of the solution increased”, the remaining at 0.5 h, 500 μg/ml (chymotrypsin; isolated enzyme chymotrypsin, pH 7) was < 5% and the remaining at 0.5 h, 500 μg/ml (pepsin; isolated enzyme pepsin, pH 2) was < 5%. For the same compound, the “cholesterol efflux (in words)” value (SR-BI receptor) was “ineffective” and the “cholesterol efflux by the ABCA1 transporter (in words)” value (ABCA1 transporter) was “ineffective”.
